Laboratory results published in patent publication US20230416275A1, “MODULATORS OF CYSTIC FIBROSIS TRANSMEMBRANE CONDUCTANCE REGULATOR” (VERTEX PHARMACEUTICALS INCORPORATED, priority 2020, published 2023).

Biological target: CFTR-mediated chloride transport in human intestinal epithelial enteroid cells (Homo sapiens, UniProt P13569)
Test: Membrane potential dye, Enteroid Assay A
Format: cell-based
Conditions: for Ent. A Max Activity (%): % of chloride transport of triple combination control (3 μM N-[(6-amino-2-pyridyl)sulfonyl]-6-(3-fluoro-5-isobutoxy-phenyl)-2-[(4S)-2,2,4-trimethylpyrrolidin-1-yl]pyridine-3-carboxamide, 3 μM tezacaftor, 300 nM acute ivacaftor); for EC50: enteroid cells, 18-24 hours incubation, acute 10 μM forskolin and 300 nM ivacaftor, read-out: Ent. A EC50
Experimental: Base medium (ADF+++) consisted of Advanced DMEM/Ham's F12, 2 mM Glutamax, 10 mM HEPES, […] penicillin/streptomycin.
Intestinal enteroid maintenance medium (IEMM) consisted of ADF+++, 1×B27 supplement, 1×N2 supplement, 1.25 mM N-acetyl cysteine, 10 mM Nicotinamide, 50 ng/mL hEGF, 10 nM Gastrin, 1 μg/mL hR-spondin-1, 100 ng/mL hNoggin, TGF-b type 1 inhibitor A-83-01, 100 μg/mL Primocin, 10 μM P38 MAPK inhibitor SB202190.
Bath 1 Buffer consisted of 1 mM MgCl2, 160 mM NaCl, 4.5 mM KCl, 10 mM HEPES, 10 mM Glucose, 2 mM CaCl2.
Chloride Free Buffer consisted of 1 mM Magnesium Gluconate, 2 mM Calcium Gluconate, 4.5 mM Potassium Gluconate, 160 mM Sodium Gluconate, 10 mM HEPES, 10 mM Glucose.
Bath1 Dye Solution consisted of Bath 1 Buffer, 0.04% Pluronic F127, 20 μM Methyl Oxonol, 30 μM CaCCinh-A01, 30 μM Chicago Sky Blue.
Chloride Free Dye Solution consisted of Chloride Free Buffer, 0.04% Pluronic F127, 20 μM Methyl Oxonol, 30 μM CaCCinh-A01, 30 μM Chicago Sky Blue.
Chloride Free Dye Stimulation Solution consisted of Chloride Free Dye Solution, 10 μM forskolin, 100 μM IBMX, and 300 nM Compound III.
Human intestinal epithelial enteroid cells were obtained from the Hubrecht Institute for Developmental Biology and Stem Cell Research, Utrecht, The Netherlands and expanded in T-Flasks as previously described (Dekkers J F, Wiegerinck C L, de Jonge H R, Bronsveld I, Janssens H M, de Winter-de Groot K M, Brandsma A M, de Jong N W M, Bijvelds M J C, Scholte B J, Nieuwenhuis E E S, van den Brink S, Clevers H, van der Ent C K, Middendorp S and M Beekman J M. A functional CFTR assay using primary cystic fibrosis intestinal organoids. Nat Med. 2013 July; 19(7):939-45).
c. Enteroid Cell Harvesting and Seeding
Cells were recovered in cell recovery solution, collected by centrifugation at 650 rpm for 5 minutes at 4° C., resuspended in TrypLE and incubated for 5 minutes at 37° C. Cells were then collected by centrifugation at 650 rpm for 5 minutes at 4° C. and resuspended in IEMM containing 10 μM ROCK inhibitor (RI). The cell suspension was passed through a 40 μm cell strainer and resuspended at 1×10^6 cells/mL in IEMM containing 10 μM RI. Cells were seeded at 5000 cells/well into multi-well plates and incubated for overnight at 37° C., 95% humidity and 5% CO2 prior to assay.
d. Membrane Potential Dye, Enteroid Assay A
Enteroid cells were incubated with test compound in IEMM for 18-24 hours at 37° C., 95% humidity and 5% CO2. […] Briefly, cells were washed 5 times in Bath 1 Buffer. Bath 1 Dye Solution was added, and the cells were incubated for 25 minutes at room temperature. Following dye incubation, cells were washed 3 times in Chloride Free Dye Solution. Chloride transport was initiated by addition of Chloride Free Dye Stimulation Solution and the fluorescence signal was read for 15 minutes. […] Chloride transport was then expressed as a percentage of the chloride transport following treatment with 3 μM N-[(6-amino-2-pyridyl)sulfonyl]-6-(3-fluoro-5-isobutoxy-phenyl)-2-[(4S)-2,2,4-trimethylpyrrolidin-1-yl]pyridine-3-carboxamide, 3 μM (R)-1-(2,2-difluorobenzo[d][1,3]dioxol-5-yl)-N-(1-(2,3-dihydroxypropyl)-6-fluoro-2-(1-hydroxy-2-methylpropan-2-yl)-1H-indol-5-yl)cyclopropanecarboxamide and 300 nM acute N-[2,4-bis(1,1-dimethylethyl)-5-hydroxyphenyl]-1,4-dihydro-4-oxoquinoline-3-carboxamide triple combination control (% Activity).

Sequence of CFTR-mediated chloride transport in human intestinal epithelial enteroid cells (P13569 with tags, fused parts or gaps DEL508-508): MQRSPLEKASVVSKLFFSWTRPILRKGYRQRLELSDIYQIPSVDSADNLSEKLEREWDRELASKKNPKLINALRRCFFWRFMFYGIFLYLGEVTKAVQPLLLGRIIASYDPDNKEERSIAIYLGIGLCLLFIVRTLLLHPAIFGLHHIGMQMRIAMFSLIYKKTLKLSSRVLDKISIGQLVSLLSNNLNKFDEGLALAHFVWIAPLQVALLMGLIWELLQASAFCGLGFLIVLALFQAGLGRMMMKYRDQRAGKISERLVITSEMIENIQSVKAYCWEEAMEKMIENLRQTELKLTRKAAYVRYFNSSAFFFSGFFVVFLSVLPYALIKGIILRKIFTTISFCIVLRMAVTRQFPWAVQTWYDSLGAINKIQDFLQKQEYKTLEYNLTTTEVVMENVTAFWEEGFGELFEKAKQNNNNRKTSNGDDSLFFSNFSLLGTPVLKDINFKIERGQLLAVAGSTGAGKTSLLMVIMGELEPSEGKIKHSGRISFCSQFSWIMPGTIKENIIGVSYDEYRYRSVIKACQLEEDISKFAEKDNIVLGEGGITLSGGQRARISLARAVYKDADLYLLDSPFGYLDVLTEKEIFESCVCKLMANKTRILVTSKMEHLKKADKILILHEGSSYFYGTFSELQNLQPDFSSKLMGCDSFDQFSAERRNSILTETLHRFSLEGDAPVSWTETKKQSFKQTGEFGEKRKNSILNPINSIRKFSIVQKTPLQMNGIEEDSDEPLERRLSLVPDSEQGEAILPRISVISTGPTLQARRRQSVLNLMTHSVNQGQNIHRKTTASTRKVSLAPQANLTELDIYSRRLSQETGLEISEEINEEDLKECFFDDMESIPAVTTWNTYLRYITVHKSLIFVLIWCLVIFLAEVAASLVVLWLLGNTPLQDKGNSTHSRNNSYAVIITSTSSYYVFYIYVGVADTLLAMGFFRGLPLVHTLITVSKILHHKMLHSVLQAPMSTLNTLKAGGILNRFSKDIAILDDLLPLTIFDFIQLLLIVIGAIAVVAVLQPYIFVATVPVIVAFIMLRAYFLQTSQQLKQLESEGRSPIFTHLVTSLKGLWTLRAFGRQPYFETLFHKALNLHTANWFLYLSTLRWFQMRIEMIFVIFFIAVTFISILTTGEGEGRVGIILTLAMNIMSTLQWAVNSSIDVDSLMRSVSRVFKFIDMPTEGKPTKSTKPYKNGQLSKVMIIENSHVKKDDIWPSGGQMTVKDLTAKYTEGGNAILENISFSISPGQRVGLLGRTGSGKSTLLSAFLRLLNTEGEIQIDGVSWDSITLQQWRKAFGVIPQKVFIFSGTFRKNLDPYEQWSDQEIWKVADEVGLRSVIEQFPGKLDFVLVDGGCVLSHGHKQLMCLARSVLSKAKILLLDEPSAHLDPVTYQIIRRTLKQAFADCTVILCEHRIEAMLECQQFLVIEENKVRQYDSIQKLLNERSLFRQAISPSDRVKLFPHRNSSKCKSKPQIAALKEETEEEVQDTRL

Row | SMILES | EC50 | Ent. A Max Activity (%)
1 | Cc1cccc(C)c1-c1cc2nc(n1)NS(=O)(=O)c1cccc(n1)NC(=O)[C@@H]1C[C@@H](CN(C(=O)OC(C)(C)C)C1)O2 (single isomer, unassigned) [Compound 16, tert-Butyl 19-(2,6-dimethylphenyl)-8,15,15-trioxo-2-oxa-15λ^6-thia-5,9,16,18,21,22-hexaazatetracyclo[15.3.1.13,7.110,14]tricosa-1(21),10,12,14(22),17,19-hexaene-5-carboxylate] | < 1 µM | +++ (+++ is >60%)
2 | Cc1cccc(C)c1-c1cc2nc(n1)NS(=O)(=O)c1cccc(n1)NC(=O)[C@H]1C[C@H](CN(C(=O)OC(C)(C)C)C1)O2 (single isomer, unassigned) [Compound 17, tert-butyl 19-(2,6-dimethylphenyl)-8,15,15-trioxo-2-oxa-15λ^6-thia-5,9,16,18,21,22-hexaazatetracyclo[15.3.1.13,7.110,14]tricosa-1(21),10,12,14(22),17,19-hexaene-5-carboxylate] | – | + (+ is <30%)
3 | Cc1cccc(C)c1-c1cc2nc(n1)NS(=O)(=O)c1cccc(c1)NC(=O)C1CC(O2)C(C)(C)N(Cc2ccccc2)C1 (single isomer, unassigned) [Compound 74, 5-benzyl-19-(2,6-dimethylphenyl)-4,4-dimethyl-2-oxa-15λ^6-thia-5,9,16,18,21-pentaazatetracyclo[15.3.1.13,7.110,14]tricosa-1(21),10,12,14(22),17,19-hexaene-8,15,15-trione] | – | + (+ is <30%)
4 | Cc1cccc(C)c1-c1cc2nc(n1)NS(=O)(=O)c1cccc(c1)NC(=O)[C@@H]1C[C@@H](CN(CC3C4(CC4)C34CC4)C1)O2 [Compound 6, (3S,7R)-19-(2,6-Dimethylphenyl)-5-({dispiro[2.0.24.13]heptan-7-yl}methyl)-2-oxa-15λ^6-thia-5,9,16,18,21-pentaazatetracyclo[15.3.1.13,7.110,14]tricosa-1(21),10(22),11,13,17,19-hexaene-8,15,15-trione] | < 1 µM | +++ (+++ is >60%)
5 | Cc1cccc(C)c1-c1cc2nc(n1)NS(=O)(=O)c1cccc(c1)NC(=O)[C@@H]1C[C@@H](CN(Cc3ccccc3)C1)O2 [Compound 9, (3S,7R)-5-Benzyl-19-(2,6-dimethylphenyl)-2-oxa-15λ^6-thia-5,9,16,18,21-pentaazatetracyclo[15.3.1.13,7.110,14]tricosa-1(20),10,12,14(22),17(21),18-hexaene-8,15,15-trione] | < 1 µM | +++ (+++ is >60%)
6 | Cc1cccc(C)c1-c1cc2nc(n1)NS(=O)(=O)c1cccc(n1)NC(=O)C1CC(CN(C(=O)OC(C)(C)C)C1)O2 (centres unmarked) [Compound 13, tert-Butyl 19-(2,6-dimethylphenyl)-8,15,15-trioxo-2-oxa-15λ^6-thia-5,9,16,18,21,22-hexaazatetracyclo[15.3.1.13,7.110,14]tricosa-1(21),10,12,14(22),17,19-hexaene-5-carboxylate] | < 1 µM | +++ (+++ is >60%)
7 | Cc1cccc(C)c1-c1cc2nc(n1)NS(=O)(=O)c1cccc(c1)NC(=O)[C@@H]1C[C@@H](CN(CCN(C)C)C1)O2 [Compound 20] | 3 to 30 µM | + (+ is <30%)
8 | Cc1cccc(C)c1-c1cc2nc(n1)NS(=O)(=O)c1cccc(c1)NC(=O)[C@@H]1C[C@@H](CN(CC3C(C)(C)C3(C)C)C1)O2 [Compound 31] | < 1 µM | ++ (++ is 30-60%)
9 | COC(=O)N1C[C@@H]2C[C@H](C1)C(=O)Nc1cccc(c1)S(=O)(=O)Nc1nc(cc(-c3c(C)cccc3C)n1)O2 [Compound 32] | 1 to 3 µM | +++ (+++ is >60%)
10 | Cc1cccc(C)c1-c1cc2nc(n1)NS(=O)(=O)c1cccc(c1)NC(=O)[C@@H]1C[C@@H](CN(C(=O)OCC(C)(C)C)C1)O2 [Compound 34] | < 1 µM | +++ (+++ is >60%)
11 | CCCCCOC(=O)N1C[C@@H]2C[C@H](C1)C(=O)Nc1cccc(c1)S(=O)(=O)Nc1nc(cc(-c3c(C)cccc3C)n1)O2 [Compound 35] | < 1 µM | +++ (+++ is >60%)
12 | Cc1cccc(C)c1-c1cc2nc(n1)NS(=O)(=O)c1cccc(c1)NC(=O)[C@@H]1C[C@@H](CN(C(=O)C3C(C)(C)C3(C)C)C1)O2 [Compound 37] | < 1 µM | ++ (++ is 30-60%)
13 | CCN1C[C@@H]2C[C@H](C1)C(=O)Nc1cccc(c1)S(=O)(=O)Nc1nc(cc(-c3c(C)cccc3C)n1)O2 [Compound 39] | 3 to 30 µM | +++ (+++ is >60%)
14 | CCCCN1C[C@@H]2C[C@H](C1)C(=O)Nc1cccc(c1)S(=O)(=O)Nc1nc(cc(-c3c(C)cccc3C)n1)O2 [Compound 40] | < 1 µM | ++ (++ is 30-60%)
15 | CCCCCCN1C[C@@H]2C[C@H](C1)C(=O)Nc1cccc(c1)S(=O)(=O)Nc1nc(cc(-c3c(C)cccc3C)n1)O2 [Compound 41] | < 1 µM | +++ (+++ is >60%)
16 | Cc1cccc(C)c1-c1cc2nc(n1)NS(=O)(=O)c1cccc(c1)NC(=O)[C@H]1C[C@H](CN1C(=O)OC(C)(C)C)O2 [Compound 79] | – | + (+ is <30%)

The next lines start with results.

Row | EC50 | SMILES | Ent. A Max Activity (%)
17 | < 1 µM | Cc1cccc(C)c1-c1cc2nc(n1)NS(=O)(=O)c1cccc(c1)NC(=O)C1CC(O2)C(C)(C)N(Cc2ccccc2)C1 (single isomer, unassigned) [Compound 73, 5-Benzyl-19-(2,6-dimethylphenyl)-4,4-dimethyl-2-oxa-15λ^6-thia-5,9,16,18,21-pentaazatetracyclo[15.3.1.13,7.110,14]tricosa-1(21),10,12,14(22),17,19-hexaene-8,15,15-trione] | + (+ is <30%)
18 | 3 to 30 µM | Cc1cccc(C)c1-c1cc2nc(n1)NS(=O)(=O)c1cccc(n1)NC(=O)C1CC(CN(C(=O)OC(C)(C)C)C1)O2 (centres unmarked) [Compound 18] | +++ (+++ is >60%)
19 | < 1 µM | Cc1cccc(C)c1-c1cc2nc(n1)NS(=O)(=O)c1cccc(c1)NC(=O)[C@@H]1C[C@@H](CN(S(=O)(=O)CC(C)(C)C)C1)O2 [Compound 19] | ++ (++ is 30-60%)
20 | < 1 µM | Cc1cccc(C)c1-c1cc2nc(n1)NS(=O)(=O)c1cccc(c1)NC(=O)[C@@H]1C[C@@H](CN(CCCC(C)(C)C)C1)O2 [Compound 22] | ++ (++ is 30-60%)
21 | < 1 µM | Cc1cccc(C)c1-c1cc2nc(n1)NS(=O)(=O)c1cccc(c1)NC(=O)[C@@H]1C[C@@H](CN(CCC(C)(C)C3CC3)C1)O2 [Compound 26] | +++ (+++ is >60%)
22 | < 1 µM | Cc1cccc(C)c1-c1cc2nc(n1)NS(=O)(=O)c1cccc(c1)NC(=O)[C@@H]1C[C@@H](CN(CC(C)C(F)(F)F)C1)O2 (some centres unmarked) [Compound 29] | +++ (+++ is >60%)
23 | < 1 µM | Cc1cccc(C)c1-c1cc2nc(n1)NS(=O)(=O)c1cccc(c1)NC(=O)[C@@H]1C[C@@H](CN(C(=O)C3(C(F)(F)F)CC3)C1)O2 [Compound 36] | +++ (+++ is >60%)
24 | 1 to 3 µM | Cc1cccc(C)c1-c1cc2nc(n1)NS(=O)(=O)c1cccc(c1)NC(=O)[C@@H]1C[C@@H](CN(CCC3CCOCC3)C1)O2 [Compound 38] | ++ (++ is 30-60%)
25 | 1 to 3 µM | Cc1cccc(C)c1-c1cc2nc(n1)NS(=O)(=O)c1cccc(c1)NC(=O)C1CN(C(=O)OC(C)(C)C)CCC1O2 (centres unmarked) [Compound 78] | ++ (++ is 30-60%)
